Assays:
Assay in all cases: NCI panel growth inhibition, sulforhodamine B
[1] = system: LOX IMVI; format: cell-based; conditions: Homo sapiens, Melanoma, drug for last 48 h of 72 h
Source text: (§1) Comparison of anticancer activities of the 1,3-substituted adamantane derivatives, 1,3-bis(4-aminophenyl)adamantane (1,3-DPANH2), 1,3-bis(4-(4-aminophenoxy)phenyl)adamantane (1,3-DPAONH2), 1,3-bis(4-(4-amino-3-hydroxy)phenyl)adamantane (1,3-DPA/OH/NH2) and 1,3-bis(4-(4-amino-2-trifluoromethylphenoxy)phenyl)adamantane (1,3-DPA/CF3/NH2) as shown in FIG. 1 were synthesized in the present invention. Those compounds were submitted to the National Cancer Institute for anticancer assay in culture against a standard panel of cell lines. […] To further confirm that the different substituents (CF3 and OH) on the phenyl ring of 1,3-DPAONH2 affect the growth inhibition of cancer cells. […] The transformations of 1,3-DPAONH2 to 1,3-DPA/OH/NH2 led to a remarked enhancement of anticancer activity toward all the tested cancer lines. The role of the OH group at the ortho position of the NH2 on growth inhibition is remarkable. In addition, one compound (1,3-DPA/OH/NH2) was confirmed to have an IC50 of <1 μM against one of the cells (BT-549 breast carcinoma). Comparison of anticancer activities of 1,3-substituted diaminophenyladamantane derivatives, the following order of potency against the tested cancer lines was observed: 1,3-DPA/OH/NH2>1,3-DPAONH2>1,3-DPANH2>1,3-DPA/CF3/NH2.

[2] = system: HL-60(TB); format: cell-based; conditions: Homo sapiens, Leukemia, drug for last 48 h of 72 h
Source text: as §1

[3] = system: A498; format: cell-based; conditions: Homo sapiens; A498, Renal cancer; drug for last 48 h of 72 h
Source text: as §1

[4] = system: ACHN; format: cell-based; conditions: Homo sapiens, Renal cancer, drug for last 48 h of 72 h
Source text: as §1

[5] = system: COLO 205; format: cell-based; conditions: Homo sapiens; COLO 205, Colon cancer; drug for last 48 h of 72 h
Source text: as §1

[6] = system: OVCAR-4; format: cell-based; conditions: Homo sapiens; OVCAR-4, Ovarian cancer; drug for last 48 h of 72 h
Source text: as §1

[7] = system: K-562; format: cell-based; conditions: Homo sapiens, K562; K-562, Leukemia; drug for last 48 h of 72 h
Source text: as §1

[8] = system: M14; format: cell-based; conditions: Homo sapiens; M14, Melanoma; drug for last 48 h of 72 h
Source text: as §1

[9] = system: HCT-116; format: cell-based; conditions: Homo sapiens; HCT-116, Colon cancer; drug for last 48 h of 72 h
Source text: as §1

[10] = system: A549/ATCC; format: cell-based; conditions: Homo sapiens, NSCLC, drug for last 48 h of 72 h
Source text: as §1

[11] = system: MCF-7; format: cell-based; conditions: Homo sapiens, MCF7; MCF-7, Breast cancer; drug for last 48 h of 72 h
Source text: as §1

[12] = system: PC-3; format: cell-based; conditions: Homo sapiens; PC-3, Prostate cancer; drug for last 48 h of 72 h
Source text: as §1

[13] = system: OVCAR-8; format: cell-based; conditions: Homo sapiens; OVCAR-8, Ovarian cancer; drug for last 48 h of 72 h
Source text: as §1

[14] = system: KM12; format: cell-based; conditions: Homo sapiens, KM12, KM12, Colon cancer; drug for last 48 h of 72 h
Source text: as §1

[15] = system: NCI-H226; format: cell-based; conditions: Homo sapiens; NCI-H226, NSCLC; drug for last 48 h of 72 h
Source text: as §1

[16] = system: SNB-19; format: cell-based; conditions: Homo sapiens; SNB-19, CNS cancer; drug for last 48 h of 72 h
Source text: as §1

[17] = system: UO-31; format: cell-based; conditions: Homo sapiens; UO-31, Renal cancer; drug for last 48 h of 72 h
Source text: as §1

[18] = system: SW-620; format: cell-based; conditions: Homo sapiens; SW-620, Colon cancer; drug for last 48 h of 72 h
Source text: as §1

[19] = system: NCI-H522; format: cell-based; conditions: Homo sapiens; NCI-H522, NSCLC; drug for last 48 h of 72 h
Source text: as §1

[20] = system: MDA-MB-435; format: cell-based; conditions: Homo sapiens; MDA-MB-435, Breast cancer; drug for last 48 h of 72 h
Source text: as §1

[21] = system: DU-145; format: cell-based; conditions: Homo sapiens; DU-145, Prostate cancer; drug for last 48 h of 72 h
Source text: as §1

[22] = system: SK-MEL-2; format: cell-based; conditions: Homo sapiens; SK-MEL-2, Melanoma; drug for last 48 h of 72 h
Source text: as §1

[23] = system: HCT-15; format: cell-based; conditions: Homo sapiens; HCT-15, Colon cancer; drug for last 48 h of 72 h
Source text: as §1

[24] = system: SN12C; format: cell-based; conditions: Homo sapiens, Renal cancer, drug for last 48 h of 72 h
Source text: as §1

[25] = system: CAKI-1; format: cell-based; conditions: Homo sapiens; CAKI-1, Renal cancer; drug for last 48 h of 72 h
Source text: as §1

[26] = system: OVCAR-3; format: cell-based; conditions: Homo sapiens; OVCAR-3, Ovarian cancer; drug for last 48 h of 72 h
Source text: as §1

[27] = system: BT-549; format: cell-based, human; conditions: drug for last 48 h of 72 h
Source text: as §1

[28] = system: NCI/ADR-RES; format: cell-based, human; conditions: Breast cancer, drug for last 48 h of 72 h
Source text: as §1

[29] = system: SF-295; format: cell-based, human; conditions: drug for last 48 h of 72 h
Source text: as §1

[30] = Homo sapiens, BT-549, BT-549, Breast cancer
[31] = Homo sapiens, SF-295, SF-295, CNS cancer

SMILES | IC50 [1] [µM] | IC50 [2] [µM] | IC50 [3] [µM] | IC50 [4] [µM] | IC50 [6] [µM] | IC50 [7] [µM] | IC50 [8] [µM] | IC50 [9] [µM] | IC50 [11] [µM] | IC50 [13] [µM] | IC50 [15] [µM] | IC50 [16] [µM] | IC50 [17] [µM] | IC50 [18] [µM] | IC50 [22] [µM] | IC50 [23] [µM] | IC50 [24] [µM] | IC50 [25] [µM] | IC50 [26] [µM] | IC50 [27, 30] [µM] | also measured
Nc1ccc(Oc2ccc(C34CC5CC(C3)CC(c3ccc(Oc6ccc(N)cc6)cc3)(C5)C4)cc2)cc1 [1,3-DPAONH2, 1,3-bis(4-(4-aminophenoxy)phenyl)adamantane] | 2.44 | 17.1 | 18 | 11.7 | 6.98 | 7.08 | 9.62 | 5.65 | 2.89 | 4.82 | 23.2 | 8.66 | 13.6 | 6.52 | 15.7 | 4.99 | 5.76 | 12.1 | 3.08 | 4.02 | IC50 [5]: 13.3 µM; IC50 [10]: 10.3 µM; IC50 [12]: 11.5 µM; IC50 [14]: 4.07 µM; IC50 [19]: 13.3 µM; IC50 [20]: 5.22 µM; IC50 [21]: 6.41 µM; IC50 ([28]; Homo sapiens): 8.59 µM; IC50 [29, 31]: 6.91 µM
Nc1ccc(Oc2ccc(C34CC5CC(C3)CC(c3ccc(Oc6ccc(N)c(O)c6)cc3)(C5)C4)cc2)cc1O [1,3-DPA/OH/NH2, 1,3-bis-(4-(4-amino-3-hydroxyphenoxy)phenyl)adamantane] | 1.64 | 2.12 | 4.54 | 1.61 | 2.02 | 3.46 | 1.59 | 1.39 | 1.85 | 2.03 | 5.05 | 1.31 | 1.95 | 2.89 | 2.45 | 1.76 | 1.74 | 1.82 | 1.85 | < 1 | IC50 [5]: 1.84 µM; IC50 [10]: 1.52 µM; IC50 [12]: 1.94 µM; IC50 [14]: 1.72 µM; IC50 [19]: 1.4 µM; IC50 [20]: 1.92 µM; IC50 [21]: 1.72 µM; IC50 ([27]; BT-549, Breast cancer): 0.565 µM; IC50 ([28]; Homo sapiens): 2.32 µM; IC50 [29, 31]: 2.29 µM
Nc1ccc(C2(c3ccc(N)cc3)C3CC4CC(C3)CC2C4)cc1 [2,2-DPANH2, 2,2-bis(4-aminophenyl)adamantane] | 16.2 | 19.2 | 21 | 18.6 | 14.3 | 10.3 | 14.9 | 20.9 | 19.4 | 7.73 | 12.4 | 14.6 | 18.3 | 11.4 | 18.5 | 21.9 | 18.6 | 15 | 10.9 | 11.2 | IC50 [12]: 14.9 µM; IC50 [19]: 15.6 µM; IC50 [20]: 14.7 µM; IC50 [28]: 0.079 µM; IC50 ([28]; Homo sapiens): < 0.1 µM; IC50 [29, 31]: < 0.1 µM; IC50 ([29]; SF-295, CNS cancer): 0.059 µM
Nc1ccc(Oc2ccc(C34CC5CC(C3)CC(c3ccc(Oc6ccc(N)cc6C(F)(F)F)cc3)(C5)C4)cc2)c(C(F)(F)F)c1 [1,3-DPA/CF3/NH2, 1,3-bis-(4-(4-amino-2-trifluoromethylphenoxy)phenyl)adamantane] | 17.9 | 24.2 | 18.3 | 32.9 | 36.6 | 43.9 | 16.9 | 24.9 | 13.4 | 16 | 19.4 | 22.5 | 39.1 | 36.3 | 14.1 | 31.8 | 31.1 | 28.1 | 17.9 | 21.9 | IC50 [5]: 19.1 µM; IC50 [10]: 19 µM; IC50 [12]: 14.8 µM; IC50 [14]: 21 µM; IC50 [19]: 14.4 µM; IC50 [20]: 24.2 µM; IC50 [21]: 35.2 µM; IC50 ([28]; Homo sapiens): 21.7 µM; IC50 [29, 31]: 25.3 µM
Nc1ccc(Oc2ccc(C3(c4ccc(Oc5ccc(N)cc5)cc4)C4CC5CC(C4)CC3C5)cc2)cc1 [2,2-DPAONH2, 2,2-bis(4-(4-aminophenoxy)phenyl)adamantane] | 2.75 | 5 | 2.91 | 13.4 | 6.96 | 3.89 | 2.28 | 2.71 | 3.81 | 5.82 | 21.4 | 10.1 | 3.02 | 5.03 | 16.8 | 4.94 | 3.65 | 11.1 | 2.58 | 4.28 | IC50 [5]: 2.71 µM; IC50 [10]: 3.38 µM; IC50 [12]: 6.75 µM; IC50 [14]: 3.55 µM; IC50 [19]: 4.28 µM; IC50 [20]: 6.04 µM; IC50 [21]: 3.31 µM; IC50 ([28]; Homo sapiens): 15.8 µM; IC50 [29, 31]: 6.76 µM
Nc1ccc(C23CC4CC(C2)CC(c2ccc(N)cc2)(C4)C3)cc1 [1,3-DPANH2, 1,3-bis(4-aminophenyl)adamantane] | > 100 | 30.9 | 15.7 | 41.1 | 10.2 | 14.6 | 37.1 | 44.3 | 31.9 | 85.1 | 11.5 | 37.8 | 4.87 | 3.14 | 35.9 | 14.5 | 25.1 | > 100 | 48.5 | 42.8 | IC50 [5]: 2.3 µM; IC50 [10]: > 100 µM; IC50 [14]: > 100 µM; IC50 [21]: 51.2 µM; IC50 ([28]; Homo sapiens): 56.8 µM; IC50 [29, 31]: 16.4 µM

Reference: patent publication US7365231B2, “Compound with antitumor activity and preparation method therefor” (National Taiwan University of Science & Technology, priority 2005, dated 2008)
